Measurements published in ChEMBL document CHEMBL5634076, “Optimization of pyridylpiperazine-based inhibitors of the Escherichia coli AcrAB-TolC efflux pump” (Eur J Med Chem, 2023).
In brackets after ≈: the same amount, converted by molar mass.

What was measured:
[1] = Solubility of compound in PBS at pH 7.4 incubated for 24 hrs by LC-MS/MS analysis; type: physicochemical
[2] = tested on: Escherichia coli; assay: Antibacterial activity against Escherichia coli BW25113 assessed as reduction in bacterial growth incubated for 20 hrs by resazurin microtitre assay; type: functional
[3] = Stability in mouse plasma assessed as half life at 10 uM measured up to 360 mins by LC-MS/MS analysis; type: ADME, cell-free
[4] = Stability in CD-1 mouse liver microsomes assessed as half life at 1 uM measured up to 40 mins by LC-MS/MS analysis; type: ADME, Microsome
[5] = Stability in CD-1 mouse liver microsomes assessed as intrinsic clearance at 1 uM measured up to 40 mins by LC-MS/MS analysis; type: ADME, Microsome; conditions: read-out: CLH
[6] = target: T1, Multidrug efflux pump subunit AcrB (Escherichia coli (strain K12)) (UniProt P31224); assay: Inhibition of AcrB in Escherichia coli BW25113 assessed as potentiation of pyridomycin-induced antibacterial activity incubated for 5 hrs by resazurin reduction assay
T1 sequence (whole entry): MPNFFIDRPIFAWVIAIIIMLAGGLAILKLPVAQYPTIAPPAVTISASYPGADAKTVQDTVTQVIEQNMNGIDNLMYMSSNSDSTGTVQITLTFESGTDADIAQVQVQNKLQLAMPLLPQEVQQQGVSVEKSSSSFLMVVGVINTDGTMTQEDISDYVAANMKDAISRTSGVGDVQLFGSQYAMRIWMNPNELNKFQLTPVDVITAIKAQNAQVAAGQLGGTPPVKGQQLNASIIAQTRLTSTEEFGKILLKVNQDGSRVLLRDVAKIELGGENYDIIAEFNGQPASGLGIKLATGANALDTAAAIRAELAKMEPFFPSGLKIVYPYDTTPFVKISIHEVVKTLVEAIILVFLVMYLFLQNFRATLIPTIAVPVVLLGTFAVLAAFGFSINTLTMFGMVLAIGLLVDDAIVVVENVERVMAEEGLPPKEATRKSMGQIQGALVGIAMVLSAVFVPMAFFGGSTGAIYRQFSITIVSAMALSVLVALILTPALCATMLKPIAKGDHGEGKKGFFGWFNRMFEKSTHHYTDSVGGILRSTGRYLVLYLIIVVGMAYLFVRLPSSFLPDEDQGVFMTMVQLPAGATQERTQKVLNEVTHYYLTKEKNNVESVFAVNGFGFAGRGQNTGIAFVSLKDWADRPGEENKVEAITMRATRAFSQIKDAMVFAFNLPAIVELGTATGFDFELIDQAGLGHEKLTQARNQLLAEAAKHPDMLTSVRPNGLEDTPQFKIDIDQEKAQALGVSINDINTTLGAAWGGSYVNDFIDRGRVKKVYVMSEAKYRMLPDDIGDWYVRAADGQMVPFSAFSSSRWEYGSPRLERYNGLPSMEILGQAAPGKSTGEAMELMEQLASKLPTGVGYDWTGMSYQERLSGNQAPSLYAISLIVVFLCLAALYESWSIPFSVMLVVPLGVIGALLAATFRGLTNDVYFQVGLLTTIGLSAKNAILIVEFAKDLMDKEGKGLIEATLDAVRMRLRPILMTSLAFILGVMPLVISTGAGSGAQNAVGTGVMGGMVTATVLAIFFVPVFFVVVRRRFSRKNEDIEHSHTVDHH

[7] = tested on: Escherichia coli; assay: Inhibition of AcrB Asp951Asn mutant in Escherichia coli BW25113 assessed as potentiation of pyridomycin-induced antibacterial activity incubated for 20 hrs by resazurin microtitre assay
[8] = tested on: Escherichia coli; assay: Inhibition of AcrB Glu947Gln mutant in Escherichia coli BW25113 assessed as potentiation of pyridomycin-induced antibacterial activity incubated for 20 hrs by resazurin microtitre assay
[9] = tested on: Escherichia coli; assay: Selectivity ratio of EC90 for inhibition of AcrB Asp951Asn mutant in Escherichia coli BW25113 to inhibition of AcrB in Escherichia coli BW25113 incubated for 20 hrs by resazurin microtitre assay
[10] = target: T1, Multidrug efflux pump subunit AcrB (Escherichia coli (strain K12)); assay: Inhibition of AcrB in Escherichia coli BW25113 assessed as potentiation of pyridomycin-induced antibacterial activity incubated for 20 hrs by resazurin microtitre assay
[11] = tested on: Escherichia coli; assay: Selectivity ratio of EC90 for inhibition of AcrB Glu947Gln mutant in Escherichia coli BW25113 to inhibition of AcrB in Escherichia coli BW25113 incubated for 20 hrs by resazurin microtitre assay
[12] = target: T1, Multidrug efflux pump subunit AcrB (Escherichia coli (strain K12)); assay: Potency index, ratio of BDM73185 EC90 to test compound EC90 for inhibition of AcrAB-TolC in Escherichia coli BW25113
[13] = tested on: Escherichia coli; assay: Antibacterial activity against Escherichia coli BW25113 assessed as reduction in bacterial growth incubated up to 18 hrs by resazurin microtitre assay; type: functional

MIC [2] | EC90 [10] | SMILES | also measured
> 250 µM | > 250 µM | Cc1nc(-c2cnc(N3CCNCC3)c(Cl)c2)co1 | –
> 250 µM | – | O=C(CBr)c1cnc(N2CCN(C(=O)OCC(Cl)(Cl)Cl)CC2)c(Cl)c1 | –
> 250 µM | > 500 µM | O=C1CN(c2ncc(C(F)(F)F)cc2Cl)CCN1 | –
> 250 µM | 23 µM | O=C(Oc1ccccc1)c1cnc(N2CCNCC2)c(Cl)c1 | –
> 250 µM | 187 µM | NCCc1ccc(NC(=O)c2cnc(N3CCNCC3)c(Cl)c2)cc1 | –
> 250 µM | – | O=C(O)c1cnc(N2CCNCC2)c(Cl)c1 | –
> 250 µM | > 500 µM | FC(F)(F)c1cnc(N2CCCNCC2)c(Cl)c1 | –
> 250 µM | 47 µM | NCCc1ccc(C(=O)Nc2cnc(N3CCNCC3)c(Cl)c2)cc1 | –
> 250 µM | 156 µM | NCc1cccc(NC(=O)c2cnc(N3CCNCC3)c(Cl)c2)c1 | –
> 250 µM | 500 µM | NC1CCN(c2ncc(C(F)(F)F)cc2Cl)CC1 | –
> 250 µM | 12 µM | CCOC(=O)c1cnc(N2CCNCC2)c(Cl)c1 | Ratio [12]: 3
– | – | CC[C@H]1OC(=O)[C@H](C)[C@@H](O[C@H]2C[C@@](C)(OC)[C@@H](O)[C@H](C)O2)[C@H](C)[C@@H](O[C@@H]2O[C@H](C)C[C@H](N(C)C)[C@H]2O)[C@](C)(O)C[C@@H](C)C(=O)[C@H](C)[C@@H](O)[C@]1(C)O [ERYTHROMYCIN] | MIC95 [13]: 128 µg/mL (≈ 174 µM)
> 250 µM | – | CC(C)(C)OC(=O)N1CCN(c2ncc(N)cc2Cl)CC1 | –
– | – | CCN1CCN(C(=O)N[C@@H](C(=O)N[C@@H]2C(=O)N3[C@@H]2SC(C)(C)[C@@H]3C(=O)O)c2ccccc2)C(=O)C1=O [PIPERACILLIN] | MIC95 [13]: 4 µg/mL (≈ 7.73 µM)
– | – | O=C(O)c1cn(C2CC2)c2cc(N3CCNCC3)c(F)cc2c1=O [CIPROFLOXACIN] | MIC95 [2]: 0.01 µg/mL (≈ 0.0302 µM)
– | – | Cc1onc(-c2ccccc2)c1C(=O)N[C@@H]1C(=O)N2[C@@H]1SC(C)(C)[C@@H]2C(=O)O [OXACILLIN] | MIC95 [2]: > 128 µg/mL

MIC [2] | EC90 [10] | SMILES | also measured
> 250 µM | 78 µM | Cc1nc(-c2cnc(N3CCNCC3)c(Cl)c2)no1 | –
> 250 µM | 187 µM | Cc1nc(-c2cnc(N3CCNCC3)c(Cl)c2)cs1 | –
> 250 µM | > 250 µM | NCCOC(=O)c1cnc(N2CCNCC2)c(Cl)c1 | –
250 µM (≈ 90 µg/mL) | 250 µM | O=C(OCCCc1ccccc1)c1cnc(N2CCNCC2)c(Cl)c1 | –
> 250 µM | 187 µM | Cc1nnc(-c2cnc(N3CCNCC3)c(Cl)c2)o1 | –
– | – | CC(=O)O[C@H]1C[C@@]2(C)[C@@H](C[C@@H](O)[C@H]3[C@@]4(C)CC[C@@H](O)[C@@H](C)[C@@H]4CC[C@@]32C)/C1=C(\CCC=C(C)C)C(=O)O [FUSIDIC ACID] | MIC95 [2]: > 128 µg/mL
> 250 µM | – | CC(C)(C)OC(=O)N1CCN(c2ncc(/C(N)=N/O)cc2Cl)CC1 | –
– | – | O=C(N[C@H](CO)[C@H](O)c1ccc([N+](=O)[O-])cc1)C(Cl)Cl [CHLORAMPHENICOL] | MIC95 [2]: 8 µg/mL (≈ 24.8 µM)
– | – | CC(=O)NC[C@H]1CN(c2ccc(N3CCOCC3)c(F)c2)C(=O)O1 [LINEZOLID] | MIC95 [2]: > 128 µg/mL
> 250 µM | > 250 µM | CNC(=O)c1cnc(N2CCNCC2)c(Cl)c1 | –
– | – | CO[C@@H]1[C@@H](OC(N)=O)[C@@H](O)[C@H](Oc2ccc3c(O)c(NC(=O)c4ccc(O)c(CC=C(C)C)c4)c(=O)oc3c2C)OC1(C)C [NOVOBIOCIN] | MIC95 [2]: 80 µg/mL (≈ 131 µM)
> 250 µM | 156 µM | O=C(OCc1ccccc1)c1cnc(N2CCNCC2)c(Cl)c1 | –
> 250 µM | > 500 µM | NCCNc1ncc(C(F)(F)F)cc1Cl | –
> 250 µM | 20 µM | COC(=O)c1cnc(N2CCNCC2)c(Cl)c1 | Ratio [12]: 3
> 250 µM | 62 µM | O=C(OCCc1ccccc1)c1cnc(N2CCNCC2)c(Cl)c1 | –

SMILES | MIC [2] | EC90 [10] | also measured
Clc1cc(I)cnc1N1CCNCC1 | > 250 µM | – | solubility at 24 h [1]: > 200 µM; half-life at 10 µM [3]: > 360 min; half-life at 1 µM [4]: 9 min; microsomal CLint at 1 µM [5]: 241 µL/min/mg; EC90 [6]: 12 µM
NCCCc1nc(-c2cnc(N3CCNCC3)c(Cl)c2)no1 | > 250 µM | 21 µM | EC90 [7]: > 250 µM; EC90 [8]: > 250 µM; Ratio [9]: > 12; Ratio [11]: > 12
OCc1cc(C(F)(F)F)cnc1N1CCNCC1 | > 250 µM | > 500 µM | –
FC(F)(F)c1cnc(N2CCNCC2)c(Br)c1 | > 250 µM | 16 µM | –
C[C@@H]1CN(c2ncc(C(F)(F)F)cc2Cl)C[C@H](C)N1 | > 250 µM | > 500 µM | –
FC(F)(F)c1ccc(N2CCNCC2)nc1 | > 250 µM | > 500 µM | –
NCc1cccc(OCc2cnc(N3CCNCC3)c(Cl)c2)c1 | > 250 µM | 23 µM | EC90 [7]: > 250 µM; EC90 [8]: > 250 µM; Ratio [9]: > 11; Ratio [11]: > 11
C[C@H]1CNCCN1c1ncc(C(F)(F)F)cc1Cl | > 250 µM | > 500 µM | –
CC(=O)Nc1cnc(N2CCNCC2)c(Cl)c1 | > 250 µM | 187 µM | –
NCc1cccc(COc2cnc(N3CCNCC3)c(Cl)c2)c1 | > 250 µM | 10 µM | EC90 [7]: 250 µM; EC90 [8]: > 250 µM; Ratio [9]: 25; Ratio [11]: > 25
O=C(Oc1cccc(CO)c1)c1cnc(N2CCNCC2)c(Cl)c1 | > 250 µM | 26 µM | EC90 [7]: 62 µM; EC90 [8]: 62 µM; Ratio [9]: 2.4; Ratio [11]: 2.4
NCCc1ccc(OC(=O)c2cnc(N3CCNCC3)c(Cl)c2)cc1 | > 250 µM | 3 µM | EC90 [7]: 23 µM; EC90 [8]: 8 µM; Ratio [9]: 8; Ratio [11]: 3
FC(F)(F)c1cc(I)cnc1N1CCNCC1 | > 250 µM | 94 µM | –
FC(F)(F)c1cnc(C2=CCNCC2)c(Cl)c1 | > 250 µM | > 250 µM | –
OCc1cnc(N2CCNCC2)c(Cl)c1 | > 250 µM | > 250 µM | –
C[C@@H]1CNCCN1c1ncc(C(F)(F)F)cc1Cl | > 250 µM | > 500 µM | –
CS(=O)(=O)Nc1cnc(N2CCNCC2)c(Cl)c1 | > 250 µM | > 250 µM | –
NCc1nc(-c2cnc(N3CCNCC3)c(Cl)c2)no1 | > 250 µM | 81 µM | EC90 [7]: 250 µM; EC90 [8]: 250 µM; Ratio [9]: 3; Ratio [11]: 3
